# Assays:
# [1] = in vitro metabolic stability in human liver microsomes; type: in vitro ADME; conditions: compound 0.5 μM, human liver microsomes 0.5 mg/mL, NADPH, 40 min, 37° C.; for CLint scaled at 0.5 μM: human, liver microsomes, read-out: Human liver microsome Clapp (apparent intrinsic clearance)
# Description: To assess the in vitro metabolic stability, the compounds (0.5 μM) were incubated in duplicates with human liver microsomes (0.5 mg/mL) in phosphate buffer and NADPH, in 96-well plates for 40 min (37° C.), using a liquid handling robot (Hamilton Microlab Star). Sample aliquots were taken at 0, 5, 10, 20 and 40 min, and dispensed into cold acetonitrile, in order to stop the reactions. The plates were centrifuged for 30 minutes before the samples were analyzed using liquid chromatography coupled to a time-of-flight mass spectrometer (AB Sciex API5600). The compound depletion over time was used to estimate the elimination rate constant, from which the apparent intrinsic clearance, Clapp, was calculated and the values are listed in table 2.
# [2] = molecular target: TYK2 (Homo sapiens (Human), UniProt P29597); experiment: JAK kinase assay (HTRF), TYK2; type: biochemical; conditions: catalytic domain (aa 871-1187), GST-tag, ATP at Km (13 μM)
# Chain of TYK2 (P29597 871-1187): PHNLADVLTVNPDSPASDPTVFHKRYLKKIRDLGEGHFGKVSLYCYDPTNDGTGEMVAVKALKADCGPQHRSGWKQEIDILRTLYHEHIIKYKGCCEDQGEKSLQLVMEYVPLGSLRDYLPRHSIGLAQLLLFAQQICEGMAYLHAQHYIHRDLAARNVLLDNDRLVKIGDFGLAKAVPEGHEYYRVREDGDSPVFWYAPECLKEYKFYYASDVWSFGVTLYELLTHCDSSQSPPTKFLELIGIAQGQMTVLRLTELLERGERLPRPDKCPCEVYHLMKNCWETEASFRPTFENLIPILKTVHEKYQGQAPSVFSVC
# Description: (§1) Human baculovirus-expressed JAK1, 2, 3 and TYK2 were purchased from Carna Biosciences, Inc. All four purified enzymes contain only the catalytic domain. JAK1 (aa 850-1154) and TYK2 (aa 871-1187) are expressed with an N-terminally fused GST-tag, and JAK2 and JAK3 with an N-terminally fused His-tag.
# (§2) Inhibition of phosphorylation of a synthetic peptide was measured in an HTRF-based assay using the TK substrate-Biotin from the Cisbio HTRFKinEASE TK kit. First, 2 μl of TK solution (TK substrate-biotin in kinase buffer [1× enzymatic buffer from HTRFKinEASE TK kit, 1 mM DTT]) is added to a plate containing 1 μl prediluted compound (final assay concentration DMSO: 0.75%). Then, 5 μl kinase-ATP mix (prepared in kinase buffer) is added to the wells and the plates are incubated at RT for 20-30 min. For all four kinases a concentration of ATP that corresponded to the Km for ATP was used. The final concentrations of buffers, substrate, kinase and ATP were: JAK1: 50 mM Hepes buffer pH 7.0, 0.01% BSA, 10 mM MgCl2, 1 mM DTT, 7 μM ATP, 50 nM SEB, 1 μM TK Substrate-Biotin and 5 ng JAK1; JAK2: 50 mM Hepes buffer pH 7.0, 0.01% BSA, 5 mM MgCl2, 1 mM DTT, 4 μM ATP, 1 μM TK Substrate-Biotin and 0.1 ng JAK2; JAK3: 50 mM Hepes buffer pH 7.0, 0.01% BSA, 5 mM MgCl2, 1 mM DTT, 2 μM ATP, 1 μM TK Substrate-Biotin and 0.3 ng JAK3; TYK2: 50 mM Hepes buffer pH 7.0, 0.01% BSA, 5 mM MgCl2, 1 mM DTT, 13 μM ATP, 50 nM SEB, 1 μM TK Substrate-Biotin and 0.8 ng TYK2. Thereafter, the kinase reaction is stopped by adding 4 μl detection mix (final concentrations: 50 mM Hepes buffer pH 7.0, 0.01% BSA, 0.8 M KF, 20 mM EDTA, 42 nM Streptavidin-XL665 and 1:400 STK Ab Cryptate) and the plates are incubated overnight in the dark. The HTRF signal is read using an Envision plate reader.
# [3] = molecular target: JAK2 (Homo sapiens (Human), UniProt O60674); experiment: JAK kinase assay (HTRF), JAK2; type: biochemical; conditions: catalytic domain, His-tag, ATP at Km (4 μM)
# Chain of JAK2 (O60674 849-1124): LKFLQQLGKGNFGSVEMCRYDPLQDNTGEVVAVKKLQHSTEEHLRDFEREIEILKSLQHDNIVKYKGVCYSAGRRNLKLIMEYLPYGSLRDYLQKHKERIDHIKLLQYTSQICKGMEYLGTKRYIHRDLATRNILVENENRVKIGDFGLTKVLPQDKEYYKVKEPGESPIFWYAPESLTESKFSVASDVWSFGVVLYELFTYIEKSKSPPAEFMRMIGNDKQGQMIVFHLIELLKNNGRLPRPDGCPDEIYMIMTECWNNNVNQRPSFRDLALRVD
# Description: as §1, §2
# [4] = molecular target: JAK1 (Homo sapiens (Human), UniProt P23458); experiment: JAK kinase assay (HTRF), JAK1; type: biochemical; conditions: catalytic domain (aa 850-1154), GST-tag, ATP at Km (7 μM)
# Chain of JAK1 (P23458 850-1154): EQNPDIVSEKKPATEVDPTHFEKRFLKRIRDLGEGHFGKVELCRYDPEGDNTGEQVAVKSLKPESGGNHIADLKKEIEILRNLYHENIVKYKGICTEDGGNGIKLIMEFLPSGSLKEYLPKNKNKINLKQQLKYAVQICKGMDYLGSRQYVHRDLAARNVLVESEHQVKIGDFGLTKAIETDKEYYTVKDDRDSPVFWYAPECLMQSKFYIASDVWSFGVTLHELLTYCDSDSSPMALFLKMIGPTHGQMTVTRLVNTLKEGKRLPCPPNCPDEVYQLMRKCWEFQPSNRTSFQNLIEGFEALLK
# Description: as §1, §2
# [5] = molecular target: JAK3 (Homo sapiens (Human), UniProt P52333); experiment: JAK kinase assay (HTRF), JAK3; type: biochemical; conditions: catalytic domain, His-tag, ATP at Km (2 μM)
# Chain of JAK3 (P52333 822-1111): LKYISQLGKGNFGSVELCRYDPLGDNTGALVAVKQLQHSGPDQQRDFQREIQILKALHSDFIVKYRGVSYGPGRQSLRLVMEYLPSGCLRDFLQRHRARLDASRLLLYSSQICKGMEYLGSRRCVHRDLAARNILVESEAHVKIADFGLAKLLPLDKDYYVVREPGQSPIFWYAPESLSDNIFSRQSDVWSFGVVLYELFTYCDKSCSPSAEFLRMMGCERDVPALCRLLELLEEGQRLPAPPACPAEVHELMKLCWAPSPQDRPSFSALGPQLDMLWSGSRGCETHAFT
# Description: as §1, §2
Structure (SMILES),CLint scaled at 0.5 μM [1],EC50 [2],EC50 [3],EC50 [4],EC50 [5],Human liver microsome Clapp (apparent intrinsic clearance) [1]
"Cc1cc(N2CC[C@H]3CCN(c4ncnc5[nH]ccc45)C[C@@]3(C)C2)ncc1C#N (racemic) [Example 8, 6-[(4aS*,8aR*)-8a-methyl-7-(7H-pyrrolo[2,3-d]pyrimidin-4-yl)-3,4,4a,5,6,8-hexahydro-1H-2,7-naphthyridin-2-yl]-4-methyl-pyridine-3-carbonitrile]",200 mL/min/kg,2110 nM,269 nM,86 nM,21 nM,–
"Cc1cc(N2C[C@H]3CCN(c4ncnc5[nH]ccc45)C[C@@]3(C)C2)ncc1C#N (racemic) [Example 40, 6-[(3aR*,7aS*)-3a-methyl-5-(7H-pyrrolo[2,3-d]pyrimidin-4-yl)-1,3,4,6,7,7a-hexahydropyrrolo[3,4-c]pyridin-2-yl]-4-methyl-pyridine-3-carbonitrile]",200 mL/min/kg,722 nM,28 nM,3 nM,46 nM,–
C[C@]12CN(c3ccc(C#N)nn3)C[C@H]1CCN(c1ncnc3[nH]ccc13)C2 (racemic) [Example 42],53 mL/min/kg,574 nM,53 nM,10 nM,78 nM,–
C[C@]12CN(c3cnc(C#N)cn3)C[C@H]1CCN(c1ncnc3[nH]ccc13)C2 (racemic) [Example 43],55 mL/min/kg,232 nM,22 nM,3 nM,37 nM,–
C[C@]12CN(c3ccc(C#N)cn3)C[C@H]1CCN(c1ncnc3[nH]ccc13)C2 (racemic) [Example 47],133 mL/min/kg,159 nM,30 nM,5 nM,26 nM,–
"C[C@]12CN(C#N)CC[C@H]1CCN(c1ncnc3[nH]ccc13)C2 (relative stereo) [Example 2, (4aR*,8aS*)-8a-methyl-7-(7H-pyrrolo[2,3-d]pyrimidin-4-yl)-3,4,4a,5,6,8-hexahydro-1H-2,7-naphthyridine-2-carbonitrile]",–,27 nM,6 nM,1 nM,25 nM,62 mL/min/kg
"CC[C@]12CN(C=O)CC[C@H]1CCN(c1ncnc3[nH]ccc13)C2 (relative stereo) [Example 16, (4aR*,8aS*)-8a-ethyl-7-(7H-pyrrolo[2,3-d]pyrimidin-4-yl)-3,4,4a,5,6,8-hexahydro-1H-2,7-naphthyridine-2-carbaldehyde]",116 mL/min/kg,176 nM,41 nM,13 nM,43 nM,–
"CC[C@@]12CN(c3ncnc4[nH]ccc34)CC[C@@H]1CCN(S(N)(=O)=O)C2 (relative stereo) [Example 17, (4aR*,8aS*)-8a-ethyl-7-(7H-pyrrolo[2,3-d]pyrimidin-4-yl)-3,4,4a,5,6,8-hexahydro-1H-2,7-naphthyridine-2-sulfonamide]",197 mL/min/kg,45 nM,7 nM,2 nM,3 nM,–
"CC[C@]12CN(c3nnc(Br)s3)CC[C@H]1CCN(c1ncnc3[nH]ccc13)C2 (relative stereo) [Example 20, 2-[(4aR*,8aS*)-8a-ethyl-7-(7H-pyrrolo[2,3-d]pyrimidin-4-yl)-3,4,4a,5,6,8-hexahydro-1H-2,7-naphthyridin-2-yl]-5-bromo-1,3,4-thiadiazole]",200 mL/min/kg,269 nM,17 nM,4 nM,5 nM,–
"CC[C@]12CN(C#N)CC[C@H]1CCN(c1ncnc3[nH]ccc13)C2 (relative stereo) [Example 23, (4aR*,8aS*)-8a-ethyl-7-(7H-pyrrolo[2,3-d]pyrimidin-4-yl)-3,4,4a,5,6,8-hexahydro-1H-2,7-naphthyridine-2-carbonitrile]",–,11 nM,4 nM,2 nM,14 nM,200 mL/min/kg
"CC12CN(c3ccc(C#N)cn3)C[C@H]1CCN(c1ncnc3[nH]ccc13)C2 (stereo in doubt) [Example 33, 6-[(3aS,7aS)-3a-methyl-5-(7H-pyrrolo[2,3-d]pyrimidin-4-yl)-1,3,4,6,7,7a-hexahydropyrrolo[3,4-c]pyridin-2-yl]pyridine-3-carbonitrile]",166 mL/min/kg,59 nM,5 nM,1 nM,8 nM,–
"CC12CN(c3ccc(C#N)cn3)C[C@@H]1CCN(c1ncnc3[nH]ccc13)C2 (stereo in doubt) [Example 34, 6-[(3aR,7aR)-3a-methyl-5-(7H-pyrrolo[2,3-d]pyrimidin-4-yl)-1,3,4,6,7,7a-hexahydropyrrolo[3,4-c]pyridin-2-yl]pyridine-3-carbonitrile]",136 mL/min/kg,7010 nM,927 nM,192 nM,1170 nM,–
"C[C@]12CN(C#N)CC[C@H]1CCN(c1ncnc3[nH]ccc13)C2 [Example 1, (4aR,8aS)-8a-methyl-7-(7H-pyrrolo[2,3-d]pyrimidin-4-yl)-3,4,4a,5,6,8-hexahydro-1H-2,7-naphthyridine-2-carbonitrile]",54 mL/min/kg,13 nM,4 nM,1 nM,15 nM,–
"C[C@@]12CN(C#N)CC[C@@H]1CCN(c1ncnc3[nH]ccc13)C2 [Example 3, (4aS,8aR)-8a-methyl-7-(7H-pyrrolo[2,3-d]pyrimidin-4-yl)-3,4,4a,5,6,8-hexahydro-1H-2,7-naphthyridine-2-carbonitrile]",60 mL/min/kg,1480 nM,428 nM,237 nM,924 nM,–
"CC[C@@]12CN(c3ncnc4[nH]ccc34)CC[C@@H]1CCN(S(N)(=O)=O)C2 [Example 18, (4aR,8aS)-8a-ethyl-7-(7H-pyrrolo[2,3-d]pyrimidin-4-yl)-3,4,4a,5,6,8-hexahydro-1H-2,7-naphthyridine-2-sulfonamide]",–,17 nM,3 nM,2 nM,2 nM,127 mL/min/kg
"CC[C@]12CN(C#N)CC[C@H]1CCN(c1ncnc3[nH]ccc13)C2 [Example 22, (4aR,8aS)-8a-ethyl-7-(7H-pyrrolo[2,3-d]pyrimidin-4-yl)-3,4,4a,5,6,8-hexahydro-1H-2,7-naphthyridine-2-carbonitrile]",185 mL/min/kg,6 nM,2 nM,1 nM,6 nM,–
"C[C@]12CN(C#N)C[C@H]1CCN(c1ncnc3[nH]ccc13)C2 [Example 29, (3aS,7aS)-3a-methyl-5-(7H-pyrrolo[2,3-d]pyrimidin-4-yl)-1,3,4,6,7,7a-hexahydropyrrolo[3,4-c]pyridine-2-carbonitrile]",10 mL/min/kg,123 nM,35 nM,10 nM,118 nM,–

# Reference: US10851116B2, “Bicyclic amines as novel JAK kinase inhibitors” (LEO Pharma A/S, priority 2017, dated 2020)
